Experiment: recombinant barcode read abundance after kanamycin selection (control-corrected) (log10(CPM+1)); higher = more efficient recombination; sequences stand for … in AGTGCAGAGAAAATCGGCCAGTTTTCTCTGCCTGCAGTCCGCATGCCGT…AGATTTATGCAGCGGACTGCCTTTCTCCCAAAGTGATAAACCGGACAGTATCATGGACCGGTTTTCCCGGTAATCCGTATTTGCAAGGTTGGTTTCACT; site = the 11-nt target
Procedure, shortened: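 Pooled E. coli screen pairing targets with IS621 bridge RNA target-binding loops. Each oligo (promoter, target, barcode, J23119-driven first 104 bridge RNA bases) was Gibson-cloned into a vector with the remaining 73 bp and T7-inducible recombinase, then co-electroporated with a donor plasmid. Two replicates each were plated on chloramphenicol/ampicillin LB agar (control) or chloramphenicol/ampicillin/kanamycin with 0.1 mM IPTG. Recombination efficiency is recombinant-junction barcode counts as CPM, averaged, control-corrected, reported as log10(CPM+1).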
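Further: IS621 recombinase and bridge RNA in Escherichia coli cells.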

Sequence | recombinant barcode read abundance (log10)
CTCCGGACTTGGGTTCTAACCTGTTGCCT (site CTCCGGACTAG) | 2.02
CTCCGGACTTGGGTTCTAACCTGTTGCCT (site CTCCGTACTAG) | 0.276
CTCCGTACTTGGGTTCTAACCTGTTGCCT (site CTCCGGACTAG) | 0.0835
CTCCGTACTTGGGTTCTAACCTGTTGCCT (site CTCCGTACTAG) | 0.858
CTCCTAGCTTGGGTTCTAACCTGTTGCTT (site CTCCGAGCTTA) | 0.00954
CTCCTAGCTTGGGTTCTAACCTGTTGCTT (site CTCCTAGCTAA) | 0.277
CTCCTCCCTTGGGTTCTAACCTGTTGCCT (site CTCCTCCCTAG) | 1.29
CTCCTCCCTTGGGTTCTAACCTGTTGCCT (site CTCCTCTCTAG) | 0.275
CTCCTCTCTTGGGTTCTAACCTGTTGCAT (site AAGTGAGCTTG) | 0.0369
CTCCTCTCTTGGGTTCTAACCTGTTGCAT (site CTCCTCTCTAT) | 2.03
CTCGAACCTTGGGTTCTAACCTGTTGCTG (site CTCGAACCTCA) | 1.93
CTCGAACCTTGGGTTCTAACCTGTTGCTG (site CTCGAATCTTA) | 0.077
CTCGGAACTTGGGTTCTAACCTGTTGCCT (site CTCGGAACTAG) | 0.374
CTCGGAACTTGGGTTCTAACCTGTTGCCT (site CTCGGACCTAG) | 0.257
CTCGGAACTTGGGTTCTAACCTGTTGCCT (site CTCGGAGCTAG) | 0.325
CTCGGAACTTGGGTTCTAACCTGTTGCCT (site CTCGGATCTAG) | 0.366
CTCGGACCTTGGGTTCTAACCTGTTGCCT (site CTCGGAACTAG) | 0.209
CTCGGACCTTGGGTTCTAACCTGTTGCCT (site CTCGGACCTAG) | 2.42
CTCGGACCTTGGGTTCTAACCTGTTGCCT (site CTCGGAGCTAG) | 0.147
CTCGGACCTTGGGTTCTAACCTGTTGCCT (site CTCGGATCTAG) | 0.263
CTCGGATCTTGGGTTCTAACCTGTTGCCT (site CTCGGAACTAG) | 0.0461
CTCGGATCTTGGGTTCTAACCTGTTGCCT (site CTCGGACCTAG) | 0.391
CTCGGATCTTGGGTTCTAACCTGTTGCCT (site CTCGGAGCTAG) | 0.0938
CTCGGATCTTGGGTTCTAACCTGTTGCCT (site CTCGGATCTAG) | 1.3
CTCGGATCTTGGGTTCTAACCTGTTGCTA (site CTCGGATCTAA) | 0.135
CTCGGATCTTGGGTTCTAACCTGTTGCTA (site CTCGGATCTCA) | 0.15

Sequence | recombinant barcode read abundance (log10)
CTCGGATCTTGGGTTCTAACCTGTTGCTA (site CTCGGATCTGA) | 0.0177
CTCGGATCTTGGGTTCTAACCTGTTGCTA (site CTCGGATCTTA) | 0.67
CTCGGATCTTGGGTTCTAACCTGTTGCTC (site CTCGGATCTAA) | 0
CTCGGATCTTGGGTTCTAACCTGTTGCTC (site CTCGGATCTCA) | 0.0519
CTCGGATCTTGGGTTCTAACCTGTTGCTC (site CTCGGATCTGA) | 0.991
CTCGGATCTTGGGTTCTAACCTGTTGCTC (site CTCGGATCTTA) | 0.138
CTCGGATCTTGGGTTCTAACCTGTTGCTG (site CTCGGATCTAA) | 0.296
CTCGGATCTTGGGTTCTAACCTGTTGCTG (site CTCGGATCTCA) | 1.08
CTCGGATCTTGGGTTCTAACCTGTTGCTG (site CTCGGATCTGA) | 0
CTCGGATCTTGGGTTCTAACCTGTTGCTG (site CTCGGATCTTA) | 0.133
CTCGTACCTTGGGTTCTAACCTGTTGCGG (site CTCGTACCTCC) | 2.52
CTCGTACCTTGGGTTCTAACCTGTTGCGG (site CTCGTAGCTCC) | 0.0696
CTCGTAGCTTGGGTTCTAACCTGTTGCCT (site AGTAGTTCTCT) | 0.223
CTCGTAGCTTGGGTTCTAACCTGTTGCCT (site CTCGTAGCTAG) | 0.651
CTCGTAGCTTGGGTTCTAACCTGTTGCGG (site CTCGTACCTCC) | 0.0414
CTCGTAGCTTGGGTTCTAACCTGTTGCGG (site CTCGTAGCTCC) | 1.23
CTCGTCACTTGGGTTCTAACCTGTTGCCT (site CTCGTAACTAG) | 0.106
CTCGTCACTTGGGTTCTAACCTGTTGCCT (site CTCGTCACTAG) | 1.91
CTCGTCACTTGGGTTCTAACCTGTTGCCT (site CTCGTGACTAG) | 0.0882
CTCGTCACTTGGGTTCTAACCTGTTGCCT (site CTCGTTACTAG) | 0.0923
CTCGTGACTTGGGTTCTAACCTGTTGCCT (site CTCGTAACTAG) | 0.682
CTCGTGACTTGGGTTCTAACCTGTTGCCT (site CTCGTCACTAG) | 0
CTCGTGACTTGGGTTCTAACCTGTTGCCT (site CTCGTGACTAG) | 1.13
CTCGTGACTTGGGTTCTAACCTGTTGCCT (site CTCGTTACTAG) | 0.335
CTCTAAACTTGGGTTCTAACCTGTTGCCA (site CTCTAAACTTG) | 0.106
CTCTAAACTTGGGTTCTAACCTGTTGCCA (site CTCTACACTTG) | 0.671

Sequence | recombinant barcode read abundance (log10)
CTCTAAACTTGGGTTCTAACCTGTTGCCA (site CTCTAGACTTG) | 0.108
CTCTAAACTTGGGTTCTAACCTGTTGCCA (site CTCTATACTTG) | 0.0391
CTCTAAACTTGGGTTCTAACCTGTTGCGA (site CTCTAAACTTC) | 0.919
CTCTAAACTTGGGTTCTAACCTGTTGCGA (site CTCTCAGCTTC) | 0.0639
CTCTAACCTTGGGTTCTAACCTGTTGCGT (site CTCTAACCTAC) | 1.45
CTCTAACCTTGGGTTCTAACCTGTTGCGT (site CTCTACCCTAC) | 0.0519
CTCTAACCTTGGGTTCTAACCTGTTGCGT (site CTCTAGCCTAC) | 0.413
CTCTAACCTTGGGTTCTAACCTGTTGCGT (site CTCTATCCTAC) | 0.0249
CTCTAGACTTGGGTTCTAACCTGTTGCCT (site CTATAGACTTG) | 0.00655
CTCTAGACTTGGGTTCTAACCTGTTGCCT (site CTCTAGACTAG) | 0.0941
CTCTAGCCTTGGGTTCTAACCTGTTGCAT (site CTCTAGCCTAT) | 0.505
CTCTAGCCTTGGGTTCTAACCTGTTGCAT (site GTCCAGCCTAT) | 0
CTCTAGTCTTGGGTTCTAACCTGTTGCTT (site CTCTAGTCTAA) | 0.748
CTCTAGTCTTGGGTTCTAACCTGTTGCTT (site CTCTAGTCTAC) | 0.518
CTCTAGTCTTGGGTTCTAACCTGTTGCTT (site CTCTAGTCTAG) | 0.377
CTCTAGTCTTGGGTTCTAACCTGTTGCTT (site CTCTAGTCTAT) | 0.755
CTCTCCTCTTGGGTTCTAACCTGTTGCCT (site CTCTCCGCTAG) | 0.502
CTCTCCTCTTGGGTTCTAACCTGTTGCCT (site CTCTCCTCTAG) | 1.28
CTCTCGTCTTGGGTTCTAACCTGTTGCTT (site CTCTCGTCTAA) | 0.2
CTCTCGTCTTGGGTTCTAACCTGTTGCTT (site CTCTCGTCTAC) | 0.517
CTCTCGTCTTGGGTTCTAACCTGTTGCTT (site CTCTCGTCTAG) | 0.107
CTCTCGTCTTGGGTTCTAACCTGTTGCTT (site CTCTCGTCTAT) | 0.091
CTCTGTCCTTGGGTTCTAACCTGTTGCCA (site CTCTGTCCTTA) | 0.0433
CTCTGTCCTTGGGTTCTAACCTGTTGCCA (site CTCTGTCCTTG) | 0.545
CTCTTAACTTGGGTTCTAACCTGTTGCGG (site AAGCATGCTTA) | 0.113
